One experiment deals with Histoplasma capsulatum. The experiment can be described thus: microbe, parasite or virus in culture. It is filed as cell-based. Conditions: for anti-Histoplasma activity (in words): qualitative statement; for MIC50: Histoplasma capsulatum, 96 h, read-out: Histoplasma capsulatum MIC50.
The subject of the next experiment is Cryptococcus neoformans. The experiment is classed as cell-based.
Experiment [1] has as its system DU-145 human prostate cancer cells. The conditions noted are these: read-out: IC50 of in vitro proliferation inhibition; cited from earlier work.
The next experiment deals with Histoplasma yeast. Conditions: inhibitory vs microbicidal; cited from earlier work.
Another experiment concerns Aspergillus fumigatus. Conditions: cited from earlier work.
The next experiment concerns Candida albicans. Conditions: cited from earlier work.
The subject of another experiment is Blastomyces dermatitidis. Conditions: cited from earlier work.

In brackets after ≈: the same amount, converted by molar mass. Entries after “also recorded” stand apart in the source; their conditions may differ.

As to `NC(=O)c1cc(-c2ccccc2)sc1NC(=O)c1ccc2c(c1)OCCO2` [4H2, reference compound], the “anti-Histoplasma activity (in words)” value with Histoplasma capsulatum is given as “abolished or reduced activity”.
As to `CC(C)(C)OC(=O)Nc1ncc(C(O)c2ccccc2)s1` (stereo not shown) [Compound 2a, tert-Butyl{5-[hydroxy(phenyl)methyl]thiazol-2-yl}carbamate], in the experiment on Histoplasma capsulatum, the MIC50 is greater than 10 µM and the “anti-Histoplasma activity (in words)” value was “lack of activity”.
`Nc1ncc(Cc2ccccc2)s1` [Compound 3a, 5-Benzyl-2-thiazolamine]: the MIC50 in the experiment on Histoplasma capsulatum is greater than 10 µM.
On the same count and under the same terms, the figure for `O=C(Nc1ncc(Cc2ccccc2)s1)C(F)(F)F` [Compound 4a, N-(5-Benzylthiazol-2-yl)trifluoroacetamide] is greater than 10 µM; for `CC(C)C(=O)Nc1ncc(Cc2ccccc2)s1` [Compound 4b, N-(5-Benzylthiazol-2-yl)isobutyramide] it is 6.7 µM (≈ 1.74 µg/mL).
With `O=C(Nc1ncc(Cc2ccccc2)s1)C1CCCC1` [Compound 4c, N-(5-Benzylthiazol-2-yl)cyclopentanecarboxamide], the “anti-Cryptococcus activity (in words)” value with Cryptococcus neoformans is reported as “anti-Cryptococcus activity”. In the experiment with Histoplasma capsulatum, the MIC50 is 1.6 ± 0.1 µM (≈ 0.458 µg/mL).
As to `O=C(Nc1ncc(Cc2ccccc2)s1)C1CCCCC1` [Compound 4d, N-(5-Benzylthiazol-2-yl)cyclohexanecarboxamide], the “anti-Cryptococcus activity (in words)” value with Cryptococcus neoformans is listed as “anti-Cryptococcus activity”. The MIC50 with Histoplasma capsulatum was 1.6 ± 0.1 µM (≈ 0.481 µg/mL).
As to `O=C(CC1CCCCC1)Nc1ncc(Cc2ccccc2)s1` [Compound 4e, N-(5-Benzylthiazol-2-yl)-2-cyclohexylacetamide], the “anti-Cryptococcus activity (in words)” value with Cryptococcus neoformans is “lost activity”.
As to `O=C(CCC1CCCCC1)Nc1ncc(Cc2ccccc2)s1` [Compound 4f, N-(5-Benzylthiazol-2-yl)-3-cyclohexylpropanamide], the “anti-Cryptococcus activity (in words)” value in the experiment with Cryptococcus neoformans is on record as “lost activity”.
Take `O=C(/C=C/C1CCCCC1)Nc1ncc(Cc2ccccc2)s1` [Compound 4g, (E)-N-(5-Benzylthiazol-2-yl)-3-cyclohexylacrylamide]: the MIC50 with Histoplasma capsulatum was greater than 10 µM.
As for `O=C(Nc1ncc(Cc2ccccc2)s1)c1ccccc1` [Compound 4h, N-(5-Benzylthiazol-2-yl)benzamide], the MIC50 in the experiment with Histoplasma capsulatum is greater than 10 µM.
Still for that read-out and setting: the value for `O=C(Nc1ncc(Cc2ccccc2)s1)C1CCSCC1` [Compound 5a, N-(5-Benzylthiazol-2-yl)tetrahydro-2H-thiopyran-4-carboxamide] was 4.8 µM (≈ 1.53 µg/mL).
Turning to `O=C(Nc1ncc(Cc2ccccc2)s1)C1CCOCC1` [Compound 5b, N-(5-Benzylthiazol-2-yl)tetrahydro-2H-pyran-4-carboxamide], the MIC50 in the experiment with Histoplasma capsulatum is greater than 10 µM.
Same read-out and setting: the figure for `O=C(Nc1ncc(Cc2ccccc2)s1)N1CCOCC1` [Compound 5f, N-(5-Benzylthiazol-2-yl)morpholine-4-carboxamide] is greater than 10 µM; for `O=C(Nc1ncc(Cc2ccccc2)s1)c1cnc(-c2cccs2)s1` [Compound 5h, N-(5-Benzylthiazol-2-yl)-2-(thiophen-2-yl)thiazole-5-carboxamide] it is greater than 10 µM.
`COc1ccc(Cc2cnc(NC(=O)/C=C/c3ccco3)s2)cc1` [Compound 6d, 3-(2-Furyl)-N-[5-(4-methoxybenzyl)-1,3-thiazol-2-yl]acrylamide]: the IC50 in experiment [1] was 15 nM. Besides, in the experiment on Histoplasma capsulatum, the “anti-Histoplasma activity (in words)” value was “did not have any antifungal activity”.
Turning to `O=C(CCC1CCCCC1)Nc1ncc(Cc2cccc(C(F)(F)F)c2)s1` [Compound 7a, N-{5-[3-(Trifluoromethyl)benzyl]thiazol-2-yl}-3-cyclohexanepropanamide], in the experiment with Histoplasma capsulatum, the “anti-Histoplasma activity (in words)” value was “lack of activity”.
For the compound `CC(C)C(=O)Nc1ncc(Cc2cccc3ccccc23)s1` [Compound 9b, N-[5-(1-Naphthalenylmethyl)thiazol-2-yl]isobutyramide], in the experiment with Cryptococcus neoformans, the “anti-Cryptococcus activity (in words)” value was “lost activity”.
Turning to `O=C(Nc1ncc(Cc2cccc3ccccc23)s1)C1CCCC1` [Compound 9c, N-[5-(1-Naphthalenylmethyl)thiazol-2-yl]cyclopentanecarboxamide], in the experiment on Cryptococcus neoformans, the “anti-Cryptococcus activity (in words)” value is reported as “anti-Cryptococcus activity”.
`O=C(Nc1ncc(Cc2cccc3ccccc23)s1)C1CCCCC1` [Compound 9d, N-[5-(1-Naphthalenylmethyl)thiazol-2-yl]cyclohexanecarboxamide]: in the experiment on Histoplasma yeast, the “type of antifungal action” value is reported as “inhibitory rather than microbicidal action”. In addition, the “anti-Cryptococcus activity (in words)” value in the experiment with Cryptococcus neoformans is on record as “anti-Cryptococcus activity”. Besides, the “inhibition of in vitro growth” value with Aspergillus fumigatus, in the experiment with Candida albicans and in the experiment with Blastomyces dermatitidis was “does not inhibit” each time.
In the case of `O=C(CC1CCCCC1)Nc1ncc(Cc2cccc3ccccc23)s1` [Compound 9e, N-[5-(1-Naphthalenylmethyl)thiazol-2-yl]-2-cyclohexaneacetamide], the “anti-Cryptococcus activity (in words)” value with Cryptococcus neoformans is recorded as “lost activity”.
The same measure, in the same setting: the value for `O=C(CCC1CCCCC1)Nc1ncc(Cc2cccc3ccccc23)s1` [Compound 9f, N-[5-(1-Naphthalenylmethyl)thiazol-2-yl]-3-cyclohexanepropanamide] was “lost activity”.
`O=C(Nc1ncc(CCc2ccccc2)s1)C1CCCC1` [Compound 11a, N-(5-Phenethylthiazol-2-yl)cyclopentanecarboxamide]: the MIC50 in the experiment with Histoplasma capsulatum was 0.9 ± 0.1 µM (≈ 0.27 µg/mL).
Take `O=C(CCC1CCCCC1)Nc1ncc(CCc2ccccc2)s1` [Compound 11b, N-(5-Phenethylthiazol-2-yl)-3-cyclohexanepropanamide]: in the experiment with Histoplasma capsulatum, the MIC50 was determined as 0.7 ± 0.1 µM (≈ 0.24 µg/mL).
Same read-out and setting: the figure for `O=C(Nc1ncc(-c2ccccc2)s1)C1CCCC1` [Compound 12a, N-(5-Phenylthiazol-2-yl)cyclopentanecarboxamide] is greater than 10 µM; for `O=C(Nc1ncc(-c2ccccc2)s1)C1CCCCC1` [Compound 12b, N-(5-Phenylthiazol-2-yl)cyclohexanecarboxamide] it is greater than 10 µM.
Regarding `CC(C)C(=O)Nc1ncc(CC2CCCCC2)s1` [Compound 13a, N-[5-(Cyclohexylmethyl)thiazol-2-yl]isobutyramide], in the experiment on Histoplasma capsulatum, the MIC50 was greater than 10 µM and the “anti-Histoplasma activity (in words)” value is on record as “no activity”.
Taken in the same sequence, the figures for `O=C(CC1CCCCC1)Nc1ncc(CC2CCCCC2)s1` [Compound 13c, N-[5-(Cyclohexylmethyl)thiazol-2-yl]-2-cyclohexaneacetamide] were greater than 10 µM and “no activity; also recorded: abolished activity”.
For `O=C(Nc1ncc(CC2CCCCC2)s1)c1ccccc1` [Compound 13e, N-[5-(Cyclohexylmethyl)thiazol-2-yl]benzamide], the MIC50 in the experiment on Histoplasma capsulatum is 4.6 µM (≈ 1.38 µg/mL).
`O=C(Nc1ncc(CC2CCCCC2)s1)C12CC3CC(CC(C3)C1)C2` [Compound 13f, N-[5-(Cyclohexylmethyl)thiazol-2-yl]adamantane-1-carboxamide]: in the experiment on Histoplasma capsulatum, the MIC50 was greater than 10 µM and the “anti-Histoplasma activity (in words)” value was “no activity”.
On the same counts, the results for `O=C(CCC1CCCCC1)Nc1nnc(Cc2ccccc2)s1` [Compound 14a, N-(5-Benzyl-1,3,4-thiadiazol-2-yl)-3-cyclohexylpropanamide] are greater than 10 µM and “abolished or reduced activity”.
On the same counts, the results for `CN(C(=O)CCC1CCCCC1)c1ncc(Cc2ccccc2)s1` [Compound 14b, N-(5-Benzylthiazol-2-yl)-3-cyclohexyl-N-methylpropanamide] are greater than 10 µM and “abolished or reduced activity”.
Take `Cc1nc(NC(=O)CCC2CCCCC2)sc1Cc1ccccc1` [Compound 14c, N-(5-Benzyl-4-methylthiazol-2-yl)-3-cyclohexylpropanamide]: in the experiment with Histoplasma capsulatum, the MIC50 is greater than 10 µM and the “anti-Histoplasma activity (in words)” value was “reduced anti-Histoplasma activity or were inactive”.
Regarding `O=C(Nc1nc(-c2ccccc2)cs1)C1CCCC1` [Compound 15a, N-(4-Phenylthiazol-2-yl)cyclopentanecarboxamide], the “anti-Histoplasma activity (in words)” value with Histoplasma capsulatum is on record as “no activity”.
Still for that read-out and setting: the entry for `O=C(CCC1CCCCC1)Nc1nc(-c2ccccc2)cs1` [Compound 15b, N-(4-Phenylthiazol-2-yl)-3-cyclohexanepropanamide] is “no activity”.
Turning to `O=C(Nc1nc(C23CC4CC(CC(C4)C2)C3)cs1)C1CCCC1` [Compound 15d, N-[4-(Adamantan-1-yl)thiazol-2-yl]cyclopentanecarboxamide], the MIC50 with Histoplasma capsulatum was determined as 7.4 µM (≈ 2.45 µg/mL).
Still for that read-out and setting: the value for `O=C(Nc1nc(C23CC4CC(CC(C4)C2)C3)cs1)C1CCCCC1` [Compound 15e, N-[4-(Adamantan-1-yl)thiazol-2-yl]cyclohexanecarboxamide] was 2.5 ± 0.1 µM (≈ 0.861 µg/mL).
Turning to `O=C(CC1CCCCC1)Nc1nc(C23CC4CC(CC(C4)C2)C3)cs1` [Compound 15f, N-[4-(Adamantan-1-yl)thiazol-2-yl]-2-cyclohexylacetamide], the “anti-Histoplasma activity (in words)” value with Histoplasma capsulatum is recorded as “abolished activity”.

These data come from publication PMC4302056 (Bioorganic & medicinal chemistry, 2014).
